Experiments:
[1] = target: T1, pre-formed Aβ42-AChE fibrils complex (Homo sapiens, UniProt P22303); test: Disaggregation of pre-formed Aβ42-AChE fibrils (ThT); type: biochemical; details: Aβ42 pre-aggregated with AChE for 2 days before co-incubation with AP5
T1 construct: purchased Roche (AChE); Aladdin (Aβ42) R005282 (AChE); A118755 (Aβ42)
Description: The effects of AP5 on Aβ fibril formation and pre-formed Aβ fibrils disaggregation were determined using a previously described method of Thioflavin T (ThT, T3516, Sigma Aldrich, St. Louis, MO, United States) fluorometry ([Jan et al., 2010]).
Supplementary materials and methods … ...1 […]
Supplementary Figure 1 … .....7
Supplementary Figure 2 … .....7
Supplementary materials and methods
Prepations ofspecimen for pharmacokinetics analysis
24 h afterdosing. Brains were collected at0, 0.25, 0.5,2, 4,8 and 24 h after administration.Plasma extractions were performed by adding 90 μL methanol and 2 μL internalstandard letrozole (500 ng/mL) to a30 µL plasma sample. […]
Then 90 μL methanol and 2 μL letrozolewere added to 30 µl brainhomogenates. The samples were vortexed for 3 min and centrifuged 15 min at25,000 g.The plasma and brainhomogenate were analyzed by UPLC-TSQ/MS (Thermo Fisher Scientific, Waltham, MA, USA). […]
To study the kinetics of Aβ-AChE fibril complex formation, 10 μM Aβ was mixed with AChE (R005282, Roche, Basel, Switzerland) and different concentrations AP5 and incubated with 10 μM ThT and 50 mM glycine-NaOH (pH 8.5) at 37°C, the ThT fluorescence was continually measured for 24 h at 30 min intervals. […] Fluorescence emission at485 nm was measured on a Spectra MAX GeminiXS fluorometerat an excitation wavelength of 450 nm. […]

Aβ40 oligomers = target: T2, Aβ40 oligomers (Homo sapiens, UniProt P05067); test: Aβ40 self-oligomerization dot blot (A11 antibody); type: biochemical; details: oligomer-specific antibody A11
T2 construct: purchased Invitrogen 03-136
T2 sequence (P05067 672-711 limits assumed): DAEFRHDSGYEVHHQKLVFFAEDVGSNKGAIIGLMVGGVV
Description: The formation of Aβ40 or Aβ42 oligomers was monitored by dot blot with oligomer-specific antibody. Briefly, the resulting Aβ film was dissolved in ddH2O to form a 100 μM solution, and then the oligomerization reaction ([Kayed et al., 2003]) was initiated in absence or presence of different concentrations of AP5. An aliquot (2 μL) of each solution was dripped on a nitrocellulose membrane. The membrane was blocked with 5% non-fat milk in TBS for 1 h, incubated with the anti-β amyloid (MOAB-2, NBP2-13075SS, Novus Biologicals, Colorado, United States), anti-amyloid oligomers (A11, NBP1-97930, Novus Biologicals), or anti-amyloid fibrils (OC, NBP1-97930, Novus Biologicals) antibodies overnight at 4°C. The membrane was then incubated using HRP-conjugated secondary antibodies at room temperature for 1 h and then developed with ECL.

C3 within astrocytes = test: C3 and GFAP co-immunostaining (A1 astrocyte marker); type: in vivo; details: AP5-treated vs APP/PS1 mice
Description: APP/PS1 mice of ages 6 months were randomly divided into vehicle (APP/PS1, n = 10) and treatment groups (AP5, n = 10), which were intragastrically administered with AP5 (40 mg/kg) once daily for consecutive 5 months. AP5 was dissolved in distilled water containing 1% sodium carboxymethyl cellulose.
The fixed hemibrains were paraffin-embedded and sectioned in the coronal plane. The slices were deparaffinized with xylene and rehydrated by a series of gradient alcohols. Antigen retrieval through microwave boiling was performed with 10 mM sodium citrate solution at pH 6.0. The slices were cooled down to room temperature and then rinsed in PBS solution. […]
(1:100, BAF2655, R&D, Minneapolis, MN, USA). […] For the quantification of Aβ plaque-associated microglia and astrocyte, Iba1- and GFAP-immunopositive cells around plaques were counted. On each slide, ten plaques were randomly determined and the microglia (nuclei) in the immediate vicinity (two times the plaque diameter) of each plaque were counted. For colocalization of PSD95 and synaptophysin, images were analyzed with the puncta analyzer plugin with a minimum pixel specification of 4 in Image Jand thresholding was consistent for every image. […]
anti-synaptophysin (1:1000, 67864-1-lg, Proteintech) overnight at 4°C. […] Densitometric analysis was performed using Quantity One software (Bio-Rad, Berkeley, CA, USA). […]

T1 sequence (P22303 32-614, one chain of several): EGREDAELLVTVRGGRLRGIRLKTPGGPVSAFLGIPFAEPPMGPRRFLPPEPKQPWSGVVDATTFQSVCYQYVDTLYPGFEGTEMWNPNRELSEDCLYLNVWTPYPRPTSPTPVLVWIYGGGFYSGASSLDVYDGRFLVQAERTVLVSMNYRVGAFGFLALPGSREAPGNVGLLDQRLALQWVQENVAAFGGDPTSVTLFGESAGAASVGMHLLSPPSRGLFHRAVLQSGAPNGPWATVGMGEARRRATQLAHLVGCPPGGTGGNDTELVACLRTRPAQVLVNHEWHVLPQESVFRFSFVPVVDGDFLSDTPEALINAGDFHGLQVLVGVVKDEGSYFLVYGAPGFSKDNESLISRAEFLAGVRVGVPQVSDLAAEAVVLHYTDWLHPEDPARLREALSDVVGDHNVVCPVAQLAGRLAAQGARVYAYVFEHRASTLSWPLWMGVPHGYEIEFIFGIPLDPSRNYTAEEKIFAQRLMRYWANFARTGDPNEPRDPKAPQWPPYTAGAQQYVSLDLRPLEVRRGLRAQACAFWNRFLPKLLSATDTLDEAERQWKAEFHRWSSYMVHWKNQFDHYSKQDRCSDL

CCN(C)C(=O)Oc1cccc(/C=C2\Cc3cc(OC)c(OC)cc3C2=O)c1 [AP5, (E)-3-((5,6-dimethoxy-1-oxo-1,3-dihydro-2H-inden-2-ylidene)-methyl)phenylethyl(methyl)carbamate]
ThT fluorescence intensity, disaggregation of pre-formed Aβ42 fibrils [1]: marked decline of ThT fluorescence intensity | levels of oligomeric Aβ40 (Aβ40 oligomers): decreased the levels | C3-positive area within the astrocytes (C3 within astrocytes): markedly reduced

— paper PMC9289467, “A Novel Multifunctional 5,6-Dimethoxy-Indanone-Chalcone-Carbamate Hybrids Alleviates Cognitive Decline in Alzheimer’s Disease by Dual Inhibition of Acetylcholinesterase and Inflammation” (Frontiers in Aging Neuroscience, 2022)
